# Measured values: patent US6525001B1, “Substituted pyrimidine and pyridine herbicides” (Mid-American Commercialization Corporation, priority 1997, dated 2003)
# Tests used:
# Assay type in all cases: in vivo
# Set-up in all cases: key: 0 is no effect; 10 is complete control
# [1] = system: purple nutsedge (Cyperus rotundus); test: Test B pre-/postemergence
# Method in brief: (§1)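 Scored visually 0 (none) to 10 (complete control) against untreated plants after twelve to sixteen greenhouse days. Test chemicals, formulated in surfactant-containing non-phytotoxic solvent, applied to soil after planting and, separately, onto 1- to 4-leaf (2–18 cm) plants.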
# [2] = system: momingglory (Ipomoea hederacea); test: Test B pre-/postemergence
# Method in brief: as §1
# [3] = system: bedstraw (Galium aparine); test: Test B pre-/postemergence; conditions: for Bedstraw plant response rating: Preemergence
# Method in brief: as §1
# [4] = system: pigweed (Amaranthus retroflexus); test: Test B pre-/postemergence
# Method in brief: as §1
# rape (Brassica napus) = test: Test B pre-/postemergence
# Method in brief: as §1
# wild oat (Avena fatua) = test: Test B pre-/postemergence
# Method in brief: as §1
# [5] = system: broadleaf signalgrass (Brachiaria decumbens); test: Test B pre-/postemergence; conditions: for B. signalgrass plant response rating: Preemergence
# Method in brief: as §1
# soybean (Glycine max) = test: Test B pre-/postemergence
# Method in brief: as §1
# [6] = system: velvetleaf (Abutilon theophrasti); test: Test B pre-/postemergence
# Method in brief: as §1
# [7] = system: blackgrass (Alopecurus myosuroides); test: Test B pre-/postemergence; conditions: for Blackgrass plant response rating: Preemergence
# Method in brief: as §1
# [8] = system: wheat (Triticum aestivum); test: Test B pre-/postemergence
# Method in brief: as §1
# corn (Zea mays) = test: Test B pre-/postemergence; conditions: for Corn plant response rating: Preemergence
# Method in brief: as §1
# [9] = system: giant foxtail (Setaria faberii); test: Test B pre-/postemergence
# Method in brief: as §1
# [10] = system: sugar beet (Beta vulgaris); test: Test B pre-/postemergence
# Method in brief: as §1
# [11] = system: crabgrass (Digitaria sanguinalis); test: Test B pre-/postemergence; conditions: for Crabgrass plant response rating: Preemergence
# Method in brief: as §1
# [12] = system: cocklebur (Xanthium strumarium); test: Test B pre-/postemergence; conditions: for Cocklebur plant response rating: Preemergence
# Method in brief: as §1
# [13] = system: smallflower flatsedge (Cyperus difformis); test: Test B flood test
# Method in brief: (§2)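 Flood test on plants grown to the 2-leaf stage; treated plants kept in greenhouse twelve to sixteen days, then visually rated against controls on a 0 (no effect) to 10 (complete control) scale.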
# rice (Oryza sativa) = test: Test B flood test
# Method in brief: as §2
# [14] = system: duck salad (Heteranthera limosa); test: Test B flood test
# Method in brief: as §2
# [15] = system: bamyardgrass (Echinochloa crus-galli); test: Test B flood test
# Method in brief: as §2
# [16] = Rate 250 g/ha, Postemergence (so in the source)
# [17] = Rate 62 g/ha, Postemergence (flood test)
# [18] = Rate 125 g/ha, Postemergence section (flood test species)
# [19] = Rate 250 g/ha, Postemergence (flood test species)
# [20] = Rate 125 g/ha, Postemergence, flood test
smiles,measurement,setting,value
Cc1cnc(-c2ccc(C#N)cc2)nc1Cc1cccc(C#N)c1 [Compound 36],"Plant response rating, Nutsedge","[1]; Rate 62 g/ha, Postemergence",0
same,Nutsedge plant response rating,"[1]; Rate 62 g/ha, Preemergence",0
same,Nutsedge plant response rating,"[1]; Rate 125 g/ha, Postemergence",0
same,Nutsedge plant response rating,"[1]; Rate 125 g/ha, Preemergence",0
same,"Plant response rating, Nutsedge","[1]; Rate 250 g/ha, Postemergence",0
same,"Plant response rating, Nutsedge",[1]; [16],0
same,"Plant response rating, Morningglory","[2]; Rate 62 g/ha, Postemergence",1
same,Morningglory plant response rating,"[2]; Rate 62 g/ha, Preemergence",0
same,Morningglory plant response rating,"[2]; Rate 125 g/ha, Postemergence",2
same,Morningglory plant response rating,"[2]; Rate 125 g/ha, Preemergence",0
same,"Plant response rating, Morningglory","[2]; Rate 250 g/ha, Postemergence",2
same,"Plant response rating, Morningglory",[2]; [16],0
same,"Plant response rating, Bedstraw","[3]; Rate 62 g/ha, Postemergence",6
same,Bedstraw plant response rating,[3]; Rate 62 g/ha,0
same,"Plant response rating, Bedstraw","[3]; Rate 125 g/ha, Postemergence",7
same,Bedstraw plant response rating,[3]; Rate 125 g/ha,0
same,"Plant response rating, Bedstraw","[3]; Rate 250 g/ha, Postemergence",7
same,"Plant response rating, Bedstraw",[3]; [16],0
same,"Plant response rating, Redroot pigweed","[4]; Rate 62 g/ha, Postemergence",0
same,Redroot pigweed plant response rating,"[4]; Rate 62 g/ha, Preemergence",0
same,Redroot pigweed plant response rating,"[4]; Rate 125 g/ha, Postemergence",4
same,Redroot pigweed plant response rating,"[4]; Rate 125 g/ha, Preemergence",0
same,"Plant response rating, Redroot pigweed","[4]; Rate 250 g/ha, Postemergence",8
same,"Plant response rating, Redroot pigweed",[4]; [16],8
same,"Plant response rating, Rape","rape (Brassica napus); Rate 62 g/ha, Postemergence",4
same,Rape plant response rating,"rape (Brassica napus); Rate 62 g/ha, Preemergence",0
same,Rape plant response rating,"rape (Brassica napus); Rate 125 g/ha, Postemergence",5
same,Rape plant response rating,"rape (Brassica napus); Rate 125 g/ha, Preemergence",0
same,"Plant response rating, Rape","rape (Brassica napus); Rate 250 g/ha, Postemergence",5
same,"Plant response rating, Rape",rape (Brassica napus); [16],1
same,Wild oats plant response rating,"wild oat (Avena fatua); Rate 62 g/ha, Postemergence",0
same,Wild oats plant response rating,"wild oat (Avena fatua); Rate 62 g/ha, Preemergence",0
same,Wild oats plant response rating,"wild oat (Avena fatua); Rate 125 g/ha, Postemergence",1
same,"Plant response rating, Wild oats","wild oat (Avena fatua); Rate 125 g/ha, Preemergence",0
same,"Plant response rating, Wild oats","wild oat (Avena fatua); Rate 250 g/ha, Postemergence",2
same,"Plant response rating, Wild oats",wild oat (Avena fatua); [16],0
same,"Plant response rating, B. signalgrass","[5]; Rate 62 g/ha, Postemergence",1
same,B. signalgrass plant response rating,[5]; Rate 62 g/ha,0
same,"Plant response rating, B. signalgrass","[5]; Rate 125 g/ha, Postemergence",1
same,B. signalgrass plant response rating,[5]; Rate 125 g/ha,0
same,"Plant response rating, B. signalgrass","[5]; Rate 250 g/ha, Postemergence",1
same,"Plant response rating, B. signalgrass","[5]; Rate 250 g/ha, Postemergence as printed in head r139 (second section for compounds 26-50)",0
same,"Plant response rating, Soybean","soybean (Glycine max); Rate 62 g/ha, Postemergence",1
same,Soybean plant response rating,"soybean (Glycine max); Rate 62 g/ha, Preemergence",0
same,Soybean plant response rating,"soybean (Glycine max); Rate 125 g/ha, Postemergence",1
same,"Plant response rating, Soybean","soybean (Glycine max); Rate 125 g/ha, Preemergence",0
same,"Plant response rating, Soybean","soybean (Glycine max); Rate 250 g/ha, Postemergence",2
same,"Plant response rating, Soybean",soybean (Glycine max); [16],1
same,"Plant response rating, Velvetleaf","[6]; Rate 62 g/ha, Postemergence",1
same,Velvetleaf plant response rating,"[6]; Rate 62 g/ha, Preemergence",0
same,Velvetleaf plant response rating,"[6]; Rate 125 g/ha, Postemergence",1
same,"Plant response rating, Velvetleaf","[6]; Rate 125 g/ha, Preemergence",0
same,"Plant response rating, Velvetleaf","[6]; Rate 250 g/ha, Postemergence",1
same,"Plant response rating, Velvetleaf",[6]; [16],1
same,"Plant response rating, Blackgrass","[7]; Rate 62 g/ha, Postemergence",0
same,Blackgrass plant response rating,[7]; Rate 62 g/ha,0
same,"Plant response rating, Blackgrass","[7]; Rate 125 g/ha, Postemergence",0
same,Blackgrass plant response rating,[7]; Rate 125 g/ha,0
same,"Plant response rating, Blackgrass","[7]; Rate 250 g/ha, Postemergence",2
same,"Plant response rating, Blackgrass",[7]; [16],1
same,Wheat plant response rating,"[8]; Rate 62 g/ha, Postemergence",0
same,Wheat plant response rating,"[8]; Rate 62 g/ha, Preemergence",0
same,Wheat plant response rating,"[8]; Rate 125 g/ha, Postemergence",1
same,"Plant response rating, Wheat","[8]; Rate 125 g/ha, Preemergence",0
same,"Plant response rating, Wheat","[8]; Rate 250 g/ha, Postemergence",2
same,"Plant response rating, Wheat",[8]; [16],0
same,"Plant response rating, Corn","corn (Zea mays); Rate 62 g/ha, Postemergence",1
same,Corn plant response rating,corn (Zea mays); Rate 62 g/ha,0
same,"Plant response rating, Corn","corn (Zea mays); Rate 125 g/ha, Postemergence",1
same,Corn plant response rating,corn (Zea mays); Rate 125 g/ha,0
same,"Plant response rating, Corn","corn (Zea mays); Rate 250 g/ha, Postemergence",1
same,"Plant response rating, Corn",corn (Zea mays); [16],0
same,"Plant response rating, Giant foxtail","[9]; Rate 62 g/ha, Postemergence",0
same,Giant foxtail plant response rating,"[9]; Rate 62 g/ha, Preemergence",0
same,Giant foxtail plant response rating,"[9]; Rate 125 g/ha, Postemergence",1
same,Giant foxtail plant response rating,"[9]; Rate 125 g/ha, Preemergence",0
same,"Plant response rating, Giant foxtail","[9]; Rate 250 g/ha, Postemergence",1
same,"Plant response rating, Giant foxtail",[9]; [16],0
same,"Plant response rating, Sugarbeets","[10]; Rate 62 g/ha, Postemergence",8
same,Sugarbeets plant response rating,"[10]; Rate 62 g/ha, Preemergence",0
same,Sugarbeets plant response rating,"[10]; Rate 125 g/ha, Postemergence",8
same,"Plant response rating, Sugarbeets","[10]; Rate 125 g/ha, Preemergence",0
same,"Plant response rating, Sugarbeets","[10]; Rate 250 g/ha, Postemergence",9
same,"Plant response rating, Sugarbeets",[10]; [16],2
same,"Plant response rating, Crabgrass","[11]; Rate 62 g/ha, Postemergence",0
same,Crabgrass plant response rating,[11]; Rate 62 g/ha,0
same,"Plant response rating, Crabgrass","[11]; Rate 125 g/ha, Postemergence",1
same,Crabgrass plant response rating,[11]; Rate 125 g/ha,0
same,"Plant response rating, Crabgrass","[11]; Rate 250 g/ha, Postemergence",1
same,"Plant response rating, Crabgrass",[11]; [16],0
same,"Plant response rating, Cocklebur","[12]; Rate 62 g/ha, Postemergence",1
same,Cocklebur plant response rating,[12]; Rate 62 g/ha,0
same,"Plant response rating, Cocklebur","[12]; Rate 125 g/ha, Postemergence",2
same,Cocklebur plant response rating,[12]; Rate 125 g/ha,0
same,"Plant response rating, Cocklebur","[12]; Rate 250 g/ha, Postemergence",3
same,"Plant response rating, Cocklebur",[12]; [16],0
same,"Plant response rating, S. Flatsedge",[13]; [17],2
same,S. Flatsedge plant response rating,[13]; [18],5
same,"Plant response rating, S. Flatsedge",[13]; [19],6
same,"Plant response rating, Rice",rice (Oryza sativa); [17],0
same,Rice plant response rating,rice (Oryza sativa); [18],0
same,"Plant response rating, Rice",rice (Oryza sativa); [19],0
same,"Plant response rating, Ducksalad",[14]; [17],0
same,"Plant response rating, Ducksalad",[14]; [20],0
same,"Plant response rating, Ducksalad",[14]; [19],1
same,"Plant response rating, Barnyardgrass",[15]; [17],0
same,"Plant response rating, Barnyardgrass",[15]; [20],0
same,"Plant response rating, Barnyardgrass",[15]; [19],0
